Data: patent US20250179519A1, “PROCESS TO ENHANCE VIRAL VECTOR PRODUCTION IN CELL-CULTURE USING GLYCYL-GLUTAMINE” (Evonik Operations GmbH, priority 2022, published 2025)
Peptide text beside a SMILES is read from it.

Assays:
[1] = test system: HEK Expi293F cells; assay: Transfection efficiency via GFP expression by flow cytometry; type: cell-based; settings: for transfection efficiency: 96 h post transfection, 8 mM supplement
Procedure: (§1) A lab study to evaluate the influence of glutamine-dipeptides on viral vector production (AAV8) was conducted. HEK293 cells (HEK Expi293F cells, Thermo Fisher Scientific) were pre-cultured in shake flasks in a commercial culture medium recommended for viral vector production (Freestyle F17 Expression medium, Gibco, Thermo Fisher Scientific). After thawing the cells in 20 ml of the respective media variant (final concentration of glutamine or glutamine dipeptide in media variants was 8 mM) in 125 mL shake flasks, they were cultivated for five passages at 37° C. (185 rpm/50 mm orbit, 5% CO2) following a passaging rhythm of 3-4 days. For production, cells were split into three replicates each with a seeding viable cell density of 2×10^6 cells/mL (day 0) in 22 mL of the respective media variant. They were transfected with polyethylenimine (PEI MAX, Polysciences) with a 2-plasmid system for AAV8 (Plasmid Factory) featuring green fluorescent protein (GFP) as gene of interest 24 hours after inoculation (day 1). Again, media variants were supplemented by glutamine (Gln), alanyl-glutamine (Ala-Gln, via the liquid supplement, GlutaMAX™, Gibco, Thermo Fisher Scientific) or glycyl-glutamine hydrate (Gly-Gln, cQrex® GQ, Evonik Operations) to a final concentration glutamine or glutamine dipeptide of 8 mM (each n=3).
(§2) To analyze cell culture performance in the different media supplementations viable cell density and viability were determined via automated cell counter. Ammonium (fluorometric approach) as well as glucose and lactate concentration (enzymatic-amperometric method) were determined during preculture and AAV8 production phase on samples from one shake flask per supplement. Transfection efficiency was determined via GFP expression by flow cytometry 48, 72 and 96 h post-transfection. For AAV8 titer determination, samples of all replicates (supernatants only) were taken 96 and 120 h post-transfection and analyzed via qPCR (genomic titer) and ELISA (capsid titer).

[2] = test system: AAV8 production in HEK Expi293F cells; assay: Genomic AAV8 titer from supernatant by qPCR; type: cell-based; settings: 8 mM supplement; for genomic AAV8 titer: supernatant
Procedure: as §1, §2

[3] = test system: AAV8 production in HEK Expi293F cells; assay: AAV8 capsid titer from supernatant by ELISA; type: cell-based; settings: 96 h and 120 h post transfection
Procedure: A lab study to evaluate the influence of glutamine-dipeptides on viral vector production (AAV8) was conducted. HEK293 cells (HEK Expi293F cells, Thermo Fisher Scientific) were pre-cultured in shake flasks in a commercial culture medium recommended for viral vector production (Freestyle F17 Expression medium, Gibco, Thermo Fisher Scientific). After thawing the cells in 20 ml of the respective media variant (final concentration of glutamine or glutamine dipeptide in media variants was 8 mM) in 125 mL shake flasks, they were cultivated for five passages at 37° C. (185 rpm/50 mm orbit, 5% CO2) following a passaging rhythm of 3-4 days. […]
as §2

[4] = compared with glutamine; cited from earlier work
[5] = test system: mouse hybridoma (CC9C10); settings: CC9C10 culture; Gly-Gln 20 mM, Ala-Gln 6 mM; cited from earlier work
[6] = test system: AAV8 production in HEK Expi293F cells; assay: Full/empty ratio (genomic titer vs. capsid titer); type: cell-based; settings: from mean values
Procedure: In a preferred embodiment, the “full/empty ratio” shall be defined as viral genome titer (vg) divided by viral particle titer (vp). A suitable method to determine vg is quantitative polymerase chain reaction (qPCR). A suitable method to measure vp titer including intact virions and empty capsids is serotype-specific enzyme-linked immunosorbent assay (ELISA).
as §2
The full/empty ratio (ratio genomic titer in vg/mL vs. capsid titer in vp/mL) was calculated using the mean values for both sampling points (FIG. 11). The full/empty ratio varied between 14-22% for the 96 h post transfection time point and between 13-21% for the 120 h post transfection time point. […]

[7] = at 20° C. in water; cited from earlier work

Row | SMILES | transfection efficiency [1] | genomic titer, comparison between supplements [2] | capsid titer compared to cultures supplemented with Gln [3] | stability during autoclaving and storage [4] | cell yields [5] | monoclonal antibody production [5] | transfection efficiency, comparison between supplements ([1]; Gln vs Ala-Gln vs Gly-Gln, 8 mM) | relative fluorescence, comparison between supplements ([1]; all sampling points (48, 72, 96 h)) | genomic AAV8 titer ([2]; 96 h post transfection) | genomic AAV8 titer ([2]; 120 h post transfection) | full/empty ratio ([6]; 96 h post transfection) | full/empty ratio ([6]; 120 h post transfection) | solubility [7]
1 | C[C@H](N)C(=O)N[C@@H](CCC(N)=O)C(=O)O [Ala-Gln, alanyl-glutamine, reference compound] (H-Ala-Gln-OH) | 98% | comparable to the other processes | higher capsid titers | comparably stable | high cell yields | comparable |  |  |  |  |  |  | 
2 | NC(=O)CC[C@H](N)C(=O)O [Gln, L-glutamine] | 98% |  |  |  |  | comparable |  |  |  |  |  |  | 
3 | NCC(=O)N[C@@H](CCC(N)=O)C(=O)O.O [Gly-Gln, Glycyl-L-Glutamine hydrate] (H-Gly-Gln-OH) | 98% |  | higher capsid titers | comparably stable | high cell yields | comparable | highest transfection efficiency | highest relative fluorescence | 7.3×10^10 vg/mL | 8.2×10^10 vg/mL | 22% | 21% | 154 mg/mL
